Measurements: ChEMBL document CHEMBL1123796, “New antitumor agents containing the anthracene nucleus” (1987)
pIC50: −log10 of the molar value.

Assays:
Format in all cases: functional
L1210 [1] = test: Effect on protein synthesis was determined by incorporation of radioligand into L1210 murine leukemia at a concentration of 0.01 ug/mL; conditions: Mus musculus
RPMI-8226 [2] = test: Effect on RNA synthesis was determined by incorporation of radioligand into 8226 human myeloma cells at a concentration of 0.01 ug/mL
Mus musculus [3] = test: Tested for skin toxicity in BALB/c mice at a significant dose of 2.00 mg/kg administered intraintradermally and involved concentric circular areas of ulceration
L1210 [4] = test: Effect on protein synthesis was determined by incorporation of radioligand into L1210 murine leukemia at a concentration of 10 ug/mL (*: >1 log cell kill); conditions: Mus musculus
Mus musculus [5] = test: Tested for skin toxicity in BALB/c mice at a significant dose of 0.25 mg/kg administered intraintradermally and involved concentric circular areas of ulceration
Mus musculus [6] = test: Tested for high-dose toxicity in mice at a significant dose of 37.5 mg/kg administered intraperitoneally after 5 days of treatment; conditions: route intraperitoneal
L1210 [7] = test: Antileukemic activity against L-1210 cells in mice at a dose of 37.5 mg/kg administered intraperitoneally after 5 day treatment; conditions: Mus musculus, L1210, ip, 120 h, route intraperitoneal
L1210 [8] = test: Effect on DNA synthesis was determined by incorporation of radioligand into L1210 murine leukemia at a concentration of 0.5 ug/mL. (*: >1 log cell kill); conditions: Mus musculus
L1210 [9] = test: Antileukemic activity against L-1210 cells in mice at a dose of 70 mg/kg administered intraperitoneally after 5 day treatment; conditions: Mus musculus, L1210, ip, 120 h, route intraperitoneal
L1210 [10] = test: Antileukemic activity against L-1210 cells in mice at a dose of 70 mg/kg administered intraperitoneally after 1 day treatment; conditions: Mus musculus, L1210, ip, 24 h, route intraperitoneal
RPMI-8226 [11] = test: Effect on DNA synthesis was determined by incorporation of radioligand into 8226 human myeloma cells at a concentration of 0.5 ug/mL. (*: >1 log cell kill)
Mus musculus [12] = test: Tested for skin toxicity in BALB/c mice at a significant dose of 1.25 mg/kg administered intraintradermally and involved concentric circular areas of erythema
RPMI-8226 [13] = test: Effect on protein synthesis was determined by incorporation of radioligand into 8226 human myeloma cells at a concentration of 10 ug/mL (*: >1 log cell kill)
L1210 [14] = test: Effect on DNA synthesis was determined by incorporation of radioligand into L1210 murine leukemia at a concentration of 0.01 ug/mL; conditions: Mus musculus
Mus musculus [15] = test: Tested for percent average weekly weight change in mice at a significant dose of 37.5 mg/kg administered intraperitoneally after 5 days of treatment; conditions: route intraperitoneal
Mus musculus [16] = test: Tested for high-dose toxicity in mice at a significant dose of 100 mg/kg administered intraperitoneally after 5 days of treatment; conditions: route intraperitoneal
RPMI-8226 [17] = test: Effect on protein synthesis was determined by incorporation of radioligand into 8226 human myeloma cells at a concentration of 0.5 ug/mL. (*: >1 log cell kill)
Mus musculus [18] = test: Tested for high-dose toxicity in mice at a significant dose of 100 mg/kg administered intraperitoneally after 1 days of treatment; conditions: route intraperitoneal
RPMI-8226 [19] = test: Effect on RNA synthesis was determined by incorporation of radioligand into 8226 human myeloma cells at a concentration of 0.5 ug/mL. (*: >1 log cell kill)
Mus musculus [20] = test: Tested for high-dose toxicity in mice at a significant dose of 90 mg/kg administered intraperitoneally after 5 days of treatment; conditions: route intraperitoneal
P388 [21] = test: Antileukemic activity against P-388 in mice at a dose of 70 mg/kg administered intraperitoneally after 1 day treatment; conditions: Mus musculus, P388, ip, 24 h, route intraperitoneal
L1210 [22] = test: Effect on DNA synthesis was determined by incorporation of radioligand into L1210 murine leukemia at a concentration of 10 ug/mL (*: >1 log cell kill); conditions: Mus musculus
Mus musculus [23] = test: Tested for high-dose toxicity in mice at a significant dose of 30 mg/kg administered intraperitoneally after 5 days of treatment; conditions: route intraperitoneal
RPMI-8226 [24] = test: Effect on RNA synthesis was determined by incorporation of radioligand into 8226 human myeloma cells at a concentration of 10 ug/mL (*: >1 log cell kill)
Mus musculus [25] = test: Tested for percent average weekly weight change in mice at a significant dose of 60 mg/kg administered intraperitoneally after 5 days of treatment; conditions: route intraperitoneal
Mus musculus [26] = test: Tested for skin toxicity in BALB/c mice at a significant dose of 0.75 mg/kg administered intraintradermally and involved concentric circular areas of ulceration
Mus musculus [27] = test: Tested for skin toxicity in BALB/c mice at a significant dose of 0.75 mg/kg administered intraintradermally and involved concentric circular areas of erythema
Mus musculus [28] = test: Tested for percent average weekly weight change in mice at a significant dose of 80 mg/kg administered intraperitoneally after 5 days of treatment; conditions: route intraperitoneal
Mus musculus [29] = test: Tested for skin toxicity in BALB/c mice at a significant dose of 1.25 mg/kg administered intraintradermally and involved concentric circular areas of induration.
L1210 [30] = test: Effect on protein synthesis was determined by incorporation of radioligand into L1210 murine leukemia at a concentration of 0.5 ug/mL. (*: >1 log cell kill); conditions: Mus musculus
[31] = Tested in vitro for inhibitory activity of human tumor cell growth against HEC 1A endometrial tumor, by using clonogenic assays.; conditions: read-out: ID50 (the source's name)
P388 [32] = test: Antileukemic activity against P-388 in mice at a dose of 37.5 mg/kg administered intraperitoneally after 5 day treatment; conditions: Mus musculus, P388, ip, 120 h, route intraperitoneal
Mus musculus [33] = test: Tested for skin toxicity in BALB/c mice at a significant dose of 2.5 mg/kg administered intraintradermally and involved concentric circular areas of induration.
Mus musculus [34] = test: Tested for percent average weekly weight change in mice at a significant dose of 100 mg/kg administered intraperitoneally in mice after 5 days of treatment; conditions: route intraperitoneal
L1210 [35] = test: Effect on protein synthesis was determined by incorporation of radioligand into L1210 murine leukemia at a concentration of 0.3 ug/mL (*: >50% cell kill); conditions: Mus musculus
P388 [36] = test: Antileukemic activity against P-388 in mice at a dose of 60 mg/kg administered intraperitoneally after 5 day treatment; conditions: Mus musculus, P388, ip, 120 h, route intraperitoneal
Mus musculus [37] = test: Tested for high-dose toxicity in mice at a significant dose of 80 mg/kg administered intraperitoneally after 5 days of treatment; conditions: route intraperitoneal
[38] = In vitro inhibition of human UACC-66 ovarian tumor cell line growth.; conditions: read-out: ID50 (the source's name)
P388 [39] = test: Antileukemic activity against P-388 in mice at a dose of 100 mg/kg administered intraperitoneally after 1 day treatment; conditions: Mus musculus, P388, ip, 24 h, route intraperitoneal
P388 [40] = test: Antileukemic activity against P-388 in mice at a dose of 80 mg/kg administered intraperitoneally after 5 day treatment; conditions: Mus musculus, P388, ip, 120 h, route intraperitoneal

In the case of `CN(C)CCNCc1c2ccccc2c(CNCCN(C)C)c2ccccc12`, the inhibition at 0.01 µg/mL (L1210 [1]) was 0%, the inhibition at 0.01 µg/mL (RPMI-8226 [2]) was 0% and the “Extent of skin lesions” value (Mus musculus [3]) was 2.6 cm**2. For the same molecule, the inhibition at 10 µg/mL (L1210 [4]) was 87.3%, the “Extent of skin lesions” value (Mus musculus [5]) was 0.2 cm**2 and the Lethality (Mus musculus [6]) was 20%. For the same molecule, the “Median day of death” value (Mus musculus [6]) was 2, the ILS at 37.5 mg/kg (L1210 [7]) was 11% and the inhibition at 0.5 µg/mL (L1210 [8]) was 5.8%. It also gave an ILS at 70 mg/kg (L1210 [9]) of 30%, an ILS at 70 mg/kg (L1210 [10]) of 40% and an inhibition at 0.5 µg/mL (RPMI-8226 [11]) of 24.3%. The “Extent of skin lesions” value (Mus musculus [12]) was 2.2 cm**2, the inhibition at 10 µg/mL (RPMI-8226 [13]) was 17.6% and the inhibition at 0.01 µg/mL (L1210 [14]) was 0%. For the same molecule, the “Average weekly weight change” value (Mus musculus [15]) was -7%, the Lethality (Mus musculus [16]) was 80% and the “Median day of death” value (Mus musculus [16]) was 8. For the same molecule, the inhibition at 0.5 µg/mL (RPMI-8226 [17]) was 63.5%, the Lethality (Mus musculus [18]) was 60% and the “Median day of death” value (Mus musculus [18]) was 0. For the same molecule, the inhibition at 0.5 µg/mL (RPMI-8226 [19]) was 7.3%, the Lethality (Mus musculus [20]) was 20% and the “Median day of death” value (Mus musculus [20]) was 3. For the same molecule, the ILS at 70 mg/kg (P388 [21]) was 27%, the inhibition at 10 µg/mL (L1210 [22]) was 75.7% and the Lethality (Mus musculus [23]) was 0%. The inhibition at 10 µg/mL (RPMI-8226 [24]) was 91.4%, the “Average weekly weight change” value (Mus musculus [25]) was 0% and the “Extent of skin lesions” value (Mus musculus [26]) was 1 cm**2. For the same molecule, the “Extent of skin lesions” value (Mus musculus [27]) was 1.3 cm**2, the “Average weekly weight change” value (Mus musculus [28]) was -10% and the “Extent of skin lesions” value (Mus musculus [29]) was 4.3 cm**2. It also gave an inhibition at 0.5 µg/mL (L1210 [30]) of 21.8%, a pIC50 [31] of 6.44 and an ILS at 37.5 mg/kg (P388 [32]) of 0%. For the same molecule, the “Extent of skin lesions” value (Mus musculus [33]) was 6.1 cm**2, the “Average weekly weight change” value (Mus musculus [34]) was -15% and the inhibition at 0.3 µg/mL (L1210 [35]) was 9.8%. For the same molecule, the ILS at 60 mg/kg (P388 [36]) was 25%, the Lethality (Mus musculus [37]) was 20% and the “Median day of death” value (Mus musculus [37]) was 4. The pIC50 [38] was 5.80, the ILS at 100 mg/kg (P388 [39]) was -33% and the ILS at 80 mg/kg (P388 [40]) was 0%.
